Results from ChEMBL document CHEMBL1145997, “Understanding the antitumor activity of novel hydroxysemicarbazide derivatives as ribonucleotide reductase inhibitors using CoMFA and CoMSIA” (J Med Chem, 2003).

Tested on: L1210
Assay: In vitro antitumor activity against L1210 cancer cell line
Type: functional, cell-based
Conditions: Mus musculus

O=C(/N=C\NNC(=O)NO)NO
IC50: 82 µM
